Data reported in article PMC4503722, “Novel Phenotypic Outcomes Identified for a Public Collection of Approved Drugs from a Publicly Accessible Panel of Assays” (PLoS ONE, 2015).
Where two headings read alike, the source gives them in different places.

Assays:
RKO = assay: cells; type: cell-based; conditions: for IC50: read-out: Basal_Viability ATP RKO summarized IC50
SW480 = assay: cells; type: cell-based; conditions: for IC50: read-out: Basal_Viability ATP SW480 summarized IC50
SNU-C1 = assay: cells; type: cell-based; conditions: for IC50: read-out: Basal_Viability ATP SNU-C1 summarized IC50
[1] = tested on: ECFC/ADSC co-culture cell nuclei number; conditions: for IC50: read-out: VEGF_ADSC\ECFC Angio Hoechst NucArea summarized IC50
Colo320 = assay: cells; type: cell-based; conditions: for IC50: read-out: Basal_Viability ATP Colo 320 summarized IC50
[2] = tested on: HCT116 cells treated with a GSK3β inhibitor; assay: cells; type: cell-based; conditions: for IC50: read-out: GSK3b inh pretreated_Viability ATP HCT116 summarized IC50
[3] = tested on: endothelial tube formation in co-cultures of ECFCs and ADSCs treated with VEGF; assay: cells; type: cell-based, human; conditions: for IC50: read-out: VEGF_ADSC\ECFC Angio CD31 TubeArea summarized IC50
HCT116 = assay: cells; type: cell-based; conditions: for IC50: read-out: Basal_Viability ATP HCT116 summarized IC50
DLD-1 = assay: cells; type: cell-based; conditions: for IC50: read-out: Basal_Viability ATP DLD-1 summarized IC50
HT-29 = assay: cells; type: cell-based; conditions: for IC50: read-out: Basal_Viability ATP HT-29 summarized IC50
HeLa cells = assay: cells; type: cell-based;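 on Hela CellCycMod PI 4N summarized IC50: value tracks stimulation of 4N DNA content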
[4] = assay number 26, GSK3b inhibitor pretreated
[5] = assay number 29, concentration response
[6] = assay number 30, concentration response
[7] = assay number 27, concentration response
[8] = assay number 26, GSK3b inhibitor pretreated, concentration response
[9] = assay number 25, basal, concentration response
[10] = assay number 23, concentration response

Oc1ccc(Cl)cc1Sc1cc(Cl)ccc1O [NCGC00013679-06]
IC50 (RKO): 0.116 µM
IC50 (SW480): 0.579 µM
IC50 (SNU-C1): 1.85 µM
IC50 [1]: 8.69 µM
IC50 (Colo320): 0.075 µM
IC50 [2]: 0.148 µM
IC50 [3]: 3.53 µM
IC50 (HCT116): 0.183 µM
IC50 (DLD-1): 0.301 µM

CC(C(=O)O)c1cccc(C(=O)c2ccccc2)c1 (centres unmarked) [NCGC00015578-12]
Basal_Viability ATP SW480 IC50/EC50 (SW480; assay number 24, basal): 10.2684 µM
Basal_Viability ATP SNU-C1 IC50/EC50 (SNU-C1; assay number 30, basal): 3.7959 µM
Basal_Viability ATP HT-29 IC50/EC50 (HT-29; assay number 28, basal): 14.387 µM
Basal_Viability ATP HCT116 IC50/EC50 (HCT116; assay number 25, basal): 10.487 µM
Basal_Viability ATP DLD-1 IC50/EC50 (DLD-1; assay number 23, basal): 8.6441 µM

CC(C)(C)NCC(O)c1cc(O)cc(O)c1.CC(C)(C)NCC(O)c1cc(O)cc(O)c1.O=S(=O)(O)O (centres unmarked) [NCGC00016010-09]
Basal_Viability ATP RKO IC50/EC50 (RKO; assay number 29): > 20 µM
Basal_Viability ATP SW480 IC50/EC50 (SW480; assay number 24): > 20 µM
Basal_Viability ATP Colo 320 IC50/EC50 (Colo320; assay number 27): > 20 µM
Basal_Viability ATP HT-29 IC50/EC50 (HT-29; assay number 28): > 20 µM
Basal_Viability ATP HCT116 IC50/EC50 (HCT116; assay number 25, basal): > 20 µM
Basal_Viability ATP DLD-1 IC50/EC50 (DLD-1; assay number 23): > 20 µM

Oc1c(I)cc(Cl)c2cccnc12 [NCGC00016391-13]
IC50 (SW480): 0.441 µM
IC50 (SNU-C1): 0.475 µM
IC50 (HeLa cells; read-out: Hela CellCycMod PI 2N summarized IC50): > 10 µM
IC50 (HeLa cells; read-out: Hela CellCycMod PI 4N summarized IC50): > 10 µM
IC50 (HeLa cells; read-out: Hela CellCycMod PI Cell Number summarized IC50): > 10 µM
IC50 (HeLa cells; read-out: Hela CellCycMod PI MI summarized IC50): > 10 µM
IC50 [1]: > 10 µM
IC50 (Colo320): 0.586 µM
IC50 (HT-29): 18.6 µM
IC50 [3]: > 10 µM
IC50 (HCT116): 0.392 µM
IC50 (DLD-1): 0.345 µM

COc1ccc(C(=O)c2ccccc2O)c(O)c1 [NCGC00016393-07]
IC50 (RKO; assay number 29, basal): > 20 µM
IC50 (SW480; assay number 24, basal): > 20 µM
IC50 (Colo320; assay number 27, basal): > 20 µM
IC50 (HT-29; assay number 28, basal): > 20 µM
IC50 (HCT116; assay number 25, basal): > 20 µM
IC50 (DLD-1; assay number 23, basal): > 20 µM

[N-]=[N+]=CC(=O)OC[C@H](N)C(=O)O [NCGC00021876-04]
Basal_Viability ATP RKO IC50/EC50 (RKO; assay number 29, basal): > 20 µM
Basal_Viability ATP SW480 IC50/EC50 (SW480; assay number 24, basal): > 20 µM
Basal_Viability ATP SNU-C1 IC50/EC50 (SNU-C1; assay number 30, basal): > 20 µM
Basal_Viability ATP HT-29 IC50/EC50 (HT-29; assay number 28, basal): > 20 µM
Basal_Viability ATP HCT116 IC50/EC50 (HCT116; assay number 25, basal): > 20 µM
Basal_Viability ATP DLD-1 IC50/EC50 (DLD-1; assay number 23, basal): > 20 µM

Oc1ccc(Cl)cc1Cc1ccccc1 [NCGC00091532-06]
IC50 (RKO; assay number 29, basal): > 20 µM
IC50 (SW480; assay number 24, basal): > 20 µM
IC50 (Colo320; assay number 27, basal): 13 µM
IC50 [2, 4]: > 6.67 µM
IC50 (HT-29; assay number 28, basal): > 20 µM
IC50 (HCT116; assay number 25, basal): > 20 µM

Cc1nc2ccccc2n1Cc1ccc(Cl)cc1 [NCGC00160416-02]
Basal_Viability ATP SW480 IC50/EC50 (SW480; assay number 24, basal): 5.3305 µM
Basal_Viability ATP SNU-C1 IC50/EC50 (SNU-C1; assay number 30, basal): > 20 µM
Hela CellCycMod PI 2N IC50/EC50 (HeLa cells; assay number 14, 2N): > 10 µM
Hela CellCycMod PI 4N IC50/EC50 (HeLa cells; assay number 16, 4N): > 10 µM
Hela CellCycMod PI MI IC50/EC50 (HeLa cells; assay number 17, MI): > 10 µM
Hela CellCycMod PI Cell Number IC50/EC50 (HeLa cells; assay number 18, cell number): 0.03183 µM
VEGF_ADSC\ECFC Angio Hoechst NucArea IC50/EC50 [1]: > 10 µM
Basal_Viability ATP Colo 320 IC50/EC50 (Colo320; assay number 27, basal): 15.1764 µM
Basal_Viability ATP HT-29 IC50/EC50 (HT-29; assay number 28, basal): > 20 µM
VEGF_ADSC\ECFC Angio CD31 TubeArea IC50/EC50 [3]: 7.3825 µM
Basal_Viability ATP HCT116 IC50/EC50 (HCT116; assay number 25, basal): 1.219 µM
Basal_Viability ATP DLD-1 IC50/EC50 (DLD-1; assay number 23, basal): > 20 µM

CCCCCCCCCCCC[N+](C)(C)Cc1ccccc1 [NCGC00164245-03]
IC50 (SNU-C1; assay number 30, basal): 0.02 µM
IC50 (HeLa cells; assay number 14, 2N, read-out: Hela CellCycMod PI 2N summarized IC50): > 10 µM
IC50 (HeLa cells; assay number 15, S phase, read-out: Hela CellCycMod PI S Phase summarized IC50): > 10 µM
IC50 (HeLa cells; assay number 16, 4N, read-out: Hela CellCycMod PI 4N summarized IC50): > 10 µM
IC50 (HeLa cells; assay number 17, MI, read-out: Hela CellCycMod PI MI summarized IC50): > 10 µM
IC50 (HeLa cells; assay number 18, cell number, read-out: Hela CellCycMod PI Cell Number summarized IC50): > 10 µM
IC50 [1]: 6.93 µM
IC50 [2, 4]: > 20 µM
IC50 (HT-29; assay number 28, basal): 0.465 µM
IC50 [3]: > 10 µM
IC50 (DLD-1; assay number 23, basal): 0.738 µM

O=C(OCc1ccccc1)c1cccnc1 [NCGC00166105-04]
Basal_Viability ATP RKO IC50/EC50 (RKO; [5]): > 20 µM
Basal_Viability ATP SNU-C1 IC50/EC50 (SNU-C1; [6]): > 20 µM
VEGF_ADSC\ECFC Angio Hoechst NucArea IC50/EC50 [1]: > 10 µM
Basal_Viability ATP Colo 320 IC50/EC50 (Colo320; [7]): > 20 µM
GSK3b inh pretreated_Viability ATP HCT116 IC50/EC50 [2, 8]: > 20 µM
VEGF_ADSC\ECFC Angio CD31 TubeArea IC50/EC50 [3]: > 10 µM
Basal_Viability ATP HCT116 IC50/EC50 (HCT116; [9]): > 20 µM
Basal_Viability ATP DLD-1 IC50/EC50 (DLD-1; [10]): > 20 µM

CCOP(=S)(OCC)SCSc1ccc(Cl)cc1 [NCGC00166170-02]
IC50 (RKO; assay number 29, basal): > 20 µM
IC50 (SW480; assay number 24, basal): > 20 µM
IC50 (SNU-C1; assay number 30, basal): > 20 µM
IC50 [1]: > 10 µM
IC50 (Colo320; assay number 27, basal): > 20 µM
IC50 [2, 4]: > 20 µM
IC50 [3]: > 10 µM
IC50 (DLD-1; assay number 23, basal): > 20 µM

C[S+](CC[C@H](N)C(=O)O)C[C@H]1O[C@@H](n2cnc3c(N)ncnc32)[C@H](O)[C@@H]1O (some centres unmarked) [NCGC00167546-03]
Basal_Viability ATP RKO IC50/EC50 (RKO; assay number 29, basal): > 20 µM
Basal_Viability ATP SW480 IC50/EC50 (SW480; assay number 24, basal): > 20 µM
Basal_Viability ATP SNU-C1 IC50/EC50 (SNU-C1; assay number 30, basal): > 20 µM
VEGF_ADSC\ECFC Angio Hoechst NucArea IC50/EC50 [1]: > 10 µM
Basal_Viability ATP Colo 320 IC50/EC50 (Colo320; assay number 27, basal): > 20 µM
GSK3b inh pretreated_Viability ATP HCT116 IC50/EC50 [2, 4]: > 20 µM
VEGF_ADSC\ECFC Angio CD31 TubeArea IC50/EC50 [3]: > 10 µM
Basal_Viability ATP HCT116 IC50/EC50 (HCT116; assay number 25, basal): > 20 µM
Basal_Viability ATP DLD-1 IC50/EC50 (DLD-1; assay number 23, basal): > 20 µM

Clc1ccc(C(Cn2ccnc2)OCc2ccc(Sc3ccccc3)cc2)c(Cl)c1 (centres unmarked) [NCGC00253713-01]
Basal_Viability ATP RKO IC50/EC50 (RKO; assay number 29): 6.141 µM
Basal_Viability ATP SW480 IC50/EC50 (SW480; assay number 24): 7.4367 µM
VEGF_ADSC\ECFC Angio Hoechst NucArea IC50/EC50 [1]: > 10 µM
Basal_Viability ATP Colo 320 IC50/EC50 (Colo320; assay number 27): 7.0587 µM
GSK3b inh pretreated_Viability ATP HCT116 IC50/EC50 [2, 4]: 6.7686 µM
Basal_Viability ATP HT-29 IC50/EC50 (HT-29; assay number 28): > 20 µM
VEGF_ADSC\ECFC Angio CD31 TubeArea IC50/EC50 [3]: > 10 µM
Basal_Viability ATP HCT116 IC50/EC50 (HCT116; assay number 25, basal): 7.7123 µM
Basal_Viability ATP DLD-1 IC50/EC50 (DLD-1; assay number 23): 7.7564 µM

CN1Cc2cc(C(=O)N3CCC(C4CCNCC4)CC3)ccc2N[C@@H](CC(=O)O)C1=O [NCGC00319023-01]
Basal_Viability ATP RKO IC50/EC50 (RKO; [5]): > 20 µM
Basal_Viability ATP SW480 IC50/EC50 (SW480; assay number 24, concentration response): > 20 µM
Basal_Viability ATP SNU-C1 IC50/EC50 (SNU-C1; [6]): > 20 µM
VEGF_ADSC\ECFC Angio Hoechst NucArea IC50/EC50 [1]: > 10 µM
Basal_Viability ATP Colo 320 IC50/EC50 (Colo320; [7]): > 20 µM
GSK3b inh pretreated_Viability ATP HCT116 IC50/EC50 [2, 8]: > 20 µM
VEGF_ADSC\ECFC Angio CD31 TubeArea IC50/EC50 [3]: > 10 µM
Basal_Viability ATP HCT116 IC50/EC50 (HCT116; [9]): > 20 µM
Basal_Viability ATP DLD-1 IC50/EC50 (DLD-1; [10]): > 20 µM

Cc1cc(-c2ccc(N=Nc3c(S(=O)(=O)O)cc4cc(S(=O)(=O)O)cc(N)c4c3O)c(C)c2)ccc1N=Nc1c(S(=O)(=O)O)cc2cc(S(=O)(=O)O)cc(N)c2c1O [NCGC00344528-01]
IC50/EC50, Basal_Viability ATP RKO (assay number 29) (RKO; basal): > 20 µM
IC50/EC50, Basal_Viability ATP SW480 (assay number 24) (SW480; basal): > 20 µM
IC50/EC50, VEGF_ADSC\ECFC Angio Hoechst NucArea (assay number 3) [1]: > 10 µM
IC50/EC50, Basal_Viability ATP Colo 320 (assay number 27) (Colo320; basal): > 20 µM
IC50/EC50, GSK3b inh pretreated_Viability ATP HCT116 (assay number 26) ([2]; GSK3b inh pretreated): > 20 µM
IC50/EC50, Basal_Viability ATP HT-29 (assay number 28) (HT-29; basal): > 20 µM
IC50/EC50, VEGF_ADSC\ECFC Angio CD31 TubeArea (assay number 2) [3]: > 10 µM
IC50/EC50, Basal_Viability ATP HCT116 (assay number 25) (HCT116; basal): > 20 µM
IC50/EC50, Basal_Viability ATP DLD-1 (assay number 23) (DLD-1; basal): > 20 µM
